As a reminder, the Kd is a measure of binding affinity in units of concentration. As usually defined, the IC50 is the midpoint of a concentration-inhibition curve.

Drawing on ChEMBL document CHEMBL4619804, “Target-Based Identification and Optimization of 5-Indazol-5-yl Pyridones as Toll-like Receptor 7 and 8 Antagonists Using a Biochemical TLR8 Antagonist Competition Assay” (J Med Chem, 2020), this text covers Kd and IC50 for eight compounds.

Bounds are passed on as bounds.

Assay [1] concerns the target T1, Toll-like receptor 8 (Homo sapiens, UniProt Q9NR97).
T1 sequence (Q9NR97 whole entry): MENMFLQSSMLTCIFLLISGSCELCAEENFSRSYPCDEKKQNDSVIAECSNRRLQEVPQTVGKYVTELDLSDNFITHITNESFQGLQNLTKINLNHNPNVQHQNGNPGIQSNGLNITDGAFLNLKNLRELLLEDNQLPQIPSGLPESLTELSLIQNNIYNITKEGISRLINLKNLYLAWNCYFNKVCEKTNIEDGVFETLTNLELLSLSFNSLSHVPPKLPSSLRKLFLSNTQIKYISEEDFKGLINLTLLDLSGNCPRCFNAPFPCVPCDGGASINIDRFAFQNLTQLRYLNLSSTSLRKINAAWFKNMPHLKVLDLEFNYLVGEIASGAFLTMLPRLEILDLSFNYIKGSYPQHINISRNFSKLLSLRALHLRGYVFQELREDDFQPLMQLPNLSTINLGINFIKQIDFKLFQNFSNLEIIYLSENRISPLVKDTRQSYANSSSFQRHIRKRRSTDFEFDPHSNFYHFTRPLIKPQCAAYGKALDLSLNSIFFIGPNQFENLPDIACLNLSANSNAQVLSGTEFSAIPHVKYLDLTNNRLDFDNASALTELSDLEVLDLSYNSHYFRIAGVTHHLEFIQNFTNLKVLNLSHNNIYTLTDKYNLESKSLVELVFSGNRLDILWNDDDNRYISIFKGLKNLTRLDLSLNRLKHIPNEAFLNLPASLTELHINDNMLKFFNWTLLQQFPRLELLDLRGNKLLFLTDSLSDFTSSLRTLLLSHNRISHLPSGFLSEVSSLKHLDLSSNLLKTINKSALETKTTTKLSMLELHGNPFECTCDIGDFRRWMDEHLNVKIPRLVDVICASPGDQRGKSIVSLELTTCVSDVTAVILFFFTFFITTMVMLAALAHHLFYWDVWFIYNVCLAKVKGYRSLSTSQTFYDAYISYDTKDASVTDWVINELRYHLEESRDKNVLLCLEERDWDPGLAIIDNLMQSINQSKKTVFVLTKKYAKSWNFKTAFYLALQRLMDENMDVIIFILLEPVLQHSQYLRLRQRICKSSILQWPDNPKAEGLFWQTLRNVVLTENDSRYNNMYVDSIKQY
Description: biochemical.
Description: Binding affinity to human TLR8 extracellular domain (27 to 827 residues) expressed in Drosophila S2 cells by fluorescence polarization assay

Assay [2] concerns the target T2, Toll-like receptor 9 (Homo sapiens, UniProt Q9NR96).
T2 sequence (Q9NR96 whole entry): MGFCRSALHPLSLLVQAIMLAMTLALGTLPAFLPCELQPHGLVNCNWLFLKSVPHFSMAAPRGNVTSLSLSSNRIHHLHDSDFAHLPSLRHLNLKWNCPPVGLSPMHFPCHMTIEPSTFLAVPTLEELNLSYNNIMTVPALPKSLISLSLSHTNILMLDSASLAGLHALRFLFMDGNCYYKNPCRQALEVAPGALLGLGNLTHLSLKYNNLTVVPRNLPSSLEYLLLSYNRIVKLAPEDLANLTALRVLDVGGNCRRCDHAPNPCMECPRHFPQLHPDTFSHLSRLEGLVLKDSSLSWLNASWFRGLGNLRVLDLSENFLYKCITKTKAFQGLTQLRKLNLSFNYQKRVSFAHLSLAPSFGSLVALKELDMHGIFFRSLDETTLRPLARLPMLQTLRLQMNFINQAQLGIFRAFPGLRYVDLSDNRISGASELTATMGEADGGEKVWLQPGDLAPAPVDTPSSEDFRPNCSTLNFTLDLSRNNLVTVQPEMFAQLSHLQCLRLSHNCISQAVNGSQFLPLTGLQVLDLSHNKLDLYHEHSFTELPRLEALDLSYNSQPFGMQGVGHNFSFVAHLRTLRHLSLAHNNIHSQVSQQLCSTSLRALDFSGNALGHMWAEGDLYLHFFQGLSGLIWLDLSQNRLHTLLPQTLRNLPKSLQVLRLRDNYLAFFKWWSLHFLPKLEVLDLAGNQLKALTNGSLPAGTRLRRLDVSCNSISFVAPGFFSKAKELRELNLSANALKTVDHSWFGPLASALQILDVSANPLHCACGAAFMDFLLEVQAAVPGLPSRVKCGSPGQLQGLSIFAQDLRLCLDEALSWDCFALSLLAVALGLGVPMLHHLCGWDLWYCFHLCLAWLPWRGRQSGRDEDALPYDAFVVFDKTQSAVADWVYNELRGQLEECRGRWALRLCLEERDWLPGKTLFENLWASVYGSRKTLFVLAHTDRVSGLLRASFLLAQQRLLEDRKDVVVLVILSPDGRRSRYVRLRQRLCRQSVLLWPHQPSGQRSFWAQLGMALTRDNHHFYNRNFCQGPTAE
Description: Antagonist activity at TLR9 in human PBMC assessed as inhibition of ODN2216-induced IFNalpha production preincubated for 30 mins followed by ODN2216 addition and measured after 20 hrs by alphaLISA. The assay is classed as cell-based. A general note: Alpha assays give light when donor and acceptor beads are brought close together.

Assay [3] concerns the target Toll-like receptor 4 (Homo sapiens, UniProt O00206). The assay can be described thus: Antagonist activity at TLR4 in human PBMC assessed as inhibition of LPS-induced TNFalpha production preincubated for 30 mins followed by LPS addition and measured after 20 hrs by HTRF assay. The class given is cell-based. A general note: TR-FRET usually uses a lanthanide donor and a delayed reading to cut background.

Assay [4] has as its target Cytochrome P450 3A4 (Homo sapiens, UniProt P08684). Description: Inhibition of CYP3A4 (unknown origin). The assay is classed as ADME.
In assay [5] the target is T1, Toll-like receptor 8. Description: biochemical. The source holds these as a separate data set.
The target in assay [6] is T3, Toll-like receptor 7 (Homo sapiens, UniProt Q9NYK1).
T3 sequence (Q9NYK1 whole entry): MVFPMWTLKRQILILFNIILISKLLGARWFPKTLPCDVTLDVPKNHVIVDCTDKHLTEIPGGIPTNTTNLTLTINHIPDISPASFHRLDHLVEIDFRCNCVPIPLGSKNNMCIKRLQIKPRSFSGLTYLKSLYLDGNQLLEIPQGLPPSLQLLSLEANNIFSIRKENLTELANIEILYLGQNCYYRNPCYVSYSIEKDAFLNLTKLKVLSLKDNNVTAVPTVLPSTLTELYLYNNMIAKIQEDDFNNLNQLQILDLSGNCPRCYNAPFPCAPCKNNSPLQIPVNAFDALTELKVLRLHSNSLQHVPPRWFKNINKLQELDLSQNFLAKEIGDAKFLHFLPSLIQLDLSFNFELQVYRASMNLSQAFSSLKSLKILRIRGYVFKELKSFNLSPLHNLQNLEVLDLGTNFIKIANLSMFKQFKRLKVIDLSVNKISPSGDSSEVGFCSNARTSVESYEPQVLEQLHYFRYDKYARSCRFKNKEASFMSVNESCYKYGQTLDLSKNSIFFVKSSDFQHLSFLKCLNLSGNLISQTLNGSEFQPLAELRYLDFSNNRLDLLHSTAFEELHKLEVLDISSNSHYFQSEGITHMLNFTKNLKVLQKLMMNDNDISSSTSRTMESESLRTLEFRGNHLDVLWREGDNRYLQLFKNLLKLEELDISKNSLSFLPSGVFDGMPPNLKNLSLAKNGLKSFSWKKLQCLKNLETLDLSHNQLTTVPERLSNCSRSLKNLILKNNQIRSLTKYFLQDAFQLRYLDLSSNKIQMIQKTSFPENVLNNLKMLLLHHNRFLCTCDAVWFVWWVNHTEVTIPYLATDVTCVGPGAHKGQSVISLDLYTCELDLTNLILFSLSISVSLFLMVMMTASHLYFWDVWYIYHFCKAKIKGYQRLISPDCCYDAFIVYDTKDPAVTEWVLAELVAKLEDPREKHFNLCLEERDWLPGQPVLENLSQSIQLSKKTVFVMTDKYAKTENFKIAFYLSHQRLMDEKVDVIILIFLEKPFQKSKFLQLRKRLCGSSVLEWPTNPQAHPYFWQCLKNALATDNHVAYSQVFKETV
Description: Antagonist activity at TLR7 in human PBMC assessed as inhibition of DOTAP-ssRNA40 induced IFNalpha production preincubated for 30 mins followed by ssRNA40 addition measured after 20 hrs by alphaLISA. The assay is classed as cell-based.

Toll-like receptor 4, sequence (O00206 whole entry): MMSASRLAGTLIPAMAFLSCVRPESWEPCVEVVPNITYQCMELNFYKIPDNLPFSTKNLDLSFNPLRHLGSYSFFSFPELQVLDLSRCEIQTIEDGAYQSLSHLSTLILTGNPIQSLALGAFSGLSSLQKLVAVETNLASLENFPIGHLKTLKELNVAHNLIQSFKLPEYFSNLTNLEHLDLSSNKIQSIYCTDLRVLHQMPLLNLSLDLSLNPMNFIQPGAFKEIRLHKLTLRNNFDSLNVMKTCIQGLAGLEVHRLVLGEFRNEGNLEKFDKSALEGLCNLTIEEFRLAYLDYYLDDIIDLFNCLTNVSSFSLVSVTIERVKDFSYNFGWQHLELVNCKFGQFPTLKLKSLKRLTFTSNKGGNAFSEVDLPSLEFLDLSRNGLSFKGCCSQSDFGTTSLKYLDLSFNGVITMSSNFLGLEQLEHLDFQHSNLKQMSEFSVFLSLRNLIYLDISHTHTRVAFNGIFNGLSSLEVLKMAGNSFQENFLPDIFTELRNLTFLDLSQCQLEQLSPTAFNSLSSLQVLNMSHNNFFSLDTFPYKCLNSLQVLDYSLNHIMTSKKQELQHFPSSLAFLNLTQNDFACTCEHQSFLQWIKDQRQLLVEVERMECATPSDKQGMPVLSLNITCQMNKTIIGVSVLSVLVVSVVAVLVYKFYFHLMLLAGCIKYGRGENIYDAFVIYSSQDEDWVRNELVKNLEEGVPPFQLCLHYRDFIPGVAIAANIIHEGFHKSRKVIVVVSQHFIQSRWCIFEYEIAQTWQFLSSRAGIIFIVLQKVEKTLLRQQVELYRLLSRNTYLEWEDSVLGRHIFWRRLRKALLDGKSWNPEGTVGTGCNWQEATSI
Cytochrome P450 3A4, sequence (P08684 whole entry): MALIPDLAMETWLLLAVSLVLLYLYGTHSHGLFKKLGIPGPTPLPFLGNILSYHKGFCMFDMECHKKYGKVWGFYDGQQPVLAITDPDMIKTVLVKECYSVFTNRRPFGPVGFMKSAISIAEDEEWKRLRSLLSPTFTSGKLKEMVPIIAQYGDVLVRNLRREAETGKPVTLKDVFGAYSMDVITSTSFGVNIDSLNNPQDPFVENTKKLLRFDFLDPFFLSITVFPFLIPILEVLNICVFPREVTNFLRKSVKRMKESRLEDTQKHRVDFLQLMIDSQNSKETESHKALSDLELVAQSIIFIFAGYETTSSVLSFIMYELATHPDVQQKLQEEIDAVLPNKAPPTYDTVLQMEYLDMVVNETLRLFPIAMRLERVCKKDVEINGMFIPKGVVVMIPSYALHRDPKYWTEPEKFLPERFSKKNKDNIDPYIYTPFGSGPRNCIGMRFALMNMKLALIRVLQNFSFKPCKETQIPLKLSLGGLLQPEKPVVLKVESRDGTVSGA

On to `CC[N+]1=C(/C=C/C=C/C=C2/N(CCCCCC(=O)NC34CCC(COc5ncc(-c6ccnc7[nH]ncc67)cc5C)(CC3)CC4)c3ccc(S(=O)(=O)O)cc3C2(C)C)C(C)(C)c2cc(S(=O)(=O)O)ccc21`, for which binding in assay [1] was characterised by a dissociation constant (Kd) of 65 nM. Regarding `Cc1cc(-c2ccc(=O)n(C)c2C)cc2cn(C3CCNCC3)nc12`, the figures for the IC50 in assay [2], in assay [3] and in assay [4] were more than 10000 nM, more than 10000 nM and more than 20000 nM, respectively. `Cc1cc(-c2ccnc3[nH]ncc23)cnc1OCC12CCC(N)(CC1)CC2` showed an IC50 in assay [5] of 68 nM. Turning to `Cn1cc(-c2ccc3nc(N4CCN(C5CCC5)CC4)ncc3c2)ccc1=O`, in assay [2], the IC50 came to 2200 nM. Turning to `Cc1cc(-c2ccc(=O)n(C)c2)cc2cnc(N3CCN(C(C)C)CC3)nc12`, the IC50 in assay [2] and in assay [6] was more than 10000 nM each time. Consider `Cc1cc(-c2cc(C)c3nn(C4CCNCC4)cc3c2)cn(C)c1=O`, for which, in assay [2], the IC50 is 200 nM.

Consider `Cc1cc(-c2ccc(=O)n(C)c2)cc2cn(C3CCNCC3)nc12`, for which, in assay [2], the IC50 was 2000 nM. As for `Cc1cc(=O)n(C)cc1-c1cc(C)c2nn(C3CCNCC3)cc2c1`, the IC50 in assay [2] was 7200 nM; in assay [3], more than 4200 nM.
